According to PubChem BioAssay (NCI):
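Five compound concentrations were applied to cells in 96-well plates for 48 hours; endpoints were derived by simple linear interpolation of the resulting dose-response curve. GI50: concentration for 50% inhibition of growth. The concentration for full growth arrest is given as TGI.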

Legend:
Assay in all cases: NCI tumour cell line growth inhibition, 48 h
[1] = system: HCT-15 colon
[2] = system: COLO 205 colon
[3] = system: U251 CNS
[4] = system: CCRF-CEM leukemia
[5] = system: OVCAR-4 ovarian
[6] = system: SF-295 CNS
[7] = system: UO-31 renal
[8] = system: UACC-257 melanoma
[9] = system: MALME-3M melanoma

## O=C(CCN(C(=O)O)S(=O)(=O)c1ccc(NC(=O)c2ccccc2)cc1)NC1CCCCC1
[1]
  TGI: > 100 µM
[2]
  TGI: > 100 µM
[3]
  TGI: > 100 µM
[4]
  TGI: > 100 µM
[5]
  TGI: > 100 µM
[6]
  TGI: > 100 µM
[7]
  TGI: > 100 µM
[8]
  TGI: > 100 µM
[9]
  TGI: > 100 µM

## COc1cc2ncn(-c3cc(OCc4cccs4)c(C(N)=O)s3)c2cc1OC
[1]
  GI50: 1.64 µM
  TGI: > 25 µM
[2]
  GI50: 1.11 µM
  TGI: > 13.9 µM
[3]
  GI50: 1.48 µM
  TGI: > 25 µM
[4]
  GI50: 0.806 µM
  TGI: > 25 µM
[5]
  GI50: 7.97 µM
  TGI: > 25 µM
[6]
  GI50: 1.59 µM
  TGI: > 25 µM
[7]
  GI50: 2.77 µM
  TGI: > 25 µM
[8]
  GI50: 3.15 µM
  TGI: > 25 µM
[9]
  GI50: 2.5 µM
  TGI: > 25 µM

## O=C(CC1(O)C(=O)Nc2c(Cl)ccc(Cl)c21)c1ccc(F)cc1 (stereo not drawn)
[1]
  TGI: > 100 µM
[2]
  TGI: > 100 µM
[3]
  TGI: > 100 µM
[4]
  TGI: > 100 µM
[5]
  TGI: 97.9 µM
[6]
  TGI: > 100 µM
[7]
  TGI: > 100 µM
[8]
  TGI: > 100 µM
[9]
  TGI: > 100 µM

## CCOCC(=O)N[C@H]1CCc2cc(OC)c(OC)c(OC)c2-c2ccc(OC)c(=O)cc21
[1]
  TGI: 19.1 µM
[2]
  TGI: 0.0205 µM
[3]
  TGI: 8.9 µM
[4]
  TGI: > 100 µM
[5]
  TGI: > 100 µM
[6]
  TGI: 0.379 µM
[7]
  TGI: > 100 µM
[8]
  TGI: > 100 µM
[9]
  TGI: > 100 µM

## O=C1Nc2ccccc2C1(c1ccc(O)cc1)c1ccc(O)cc1
[1]
  GI50: 19.2 µM
  TGI: > 100 µM
[2]
  GI50: 0.125 µM
  TGI: 4.38 µM
[3]
  GI50: 24.2 µM
  TGI: 63.5 µM
[4]
  GI50: 32.7 µM
  TGI: 99.8 µM
[5]
  GI50: 0.103 µM
  TGI: 0.961 µM
[6]
  GI50: 16.2 µM
  TGI: 49.4 µM
[7]
  GI50: 23.7 µM
  TGI: > 89.1 µM
[8]
  GI50: 25.3 µM
  TGI: 62 µM
[9]
  GI50: 28.5 µM
  TGI: 92 µM

## C=C(C[C@](O)(C(=O)/C=C/c1ccc(Cl)cc1)C(=O)OC)c1ccccc1
[1]
  GI50: 1.45 µM
  TGI: 3.52 µM
[2]
  GI50: 2 µM
  TGI: 4.36 µM
[3]
  GI50: 1.85 µM
  TGI: 3.74 µM
[4]
  GI50: 2.86 µM
  TGI: 13 µM
[5]
  GI50: 3.07 µM
  TGI: 15.6 µM
[6]
  GI50: 7.96 µM
  TGI: 20.7 µM
[7]
  GI50: 1.56 µM
  TGI: 3.2 µM
[8]
  GI50: 13.1 µM
  TGI: 25.8 µM
[9]
  GI50: 12.4 µM
  TGI: 26.5 µM

## O=C(Nc1ccncc1)C(=O)c1cn(S(=O)(=O)c2cccc(F)c2)c2ccccc12
[1]
  GI50: 2.74 µM
  TGI: > 100 µM
[2]
  GI50: 32.4 µM
  TGI: > 100 µM
[3]
  GI50: 4.38 µM
  TGI: > 100 µM
[4]
  GI50: 2.58 µM
  TGI: > 100 µM
[5]
  GI50: 5.09 µM
  TGI: > 100 µM
[6]
  GI50: 2.84 µM
  TGI: 27.5 µM
[7]
  GI50: 6.15 µM
  TGI: > 100 µM
[8]
  GI50: 13.5 µM
  TGI: > 100 µM
[9]
  GI50: 12.8 µM
  TGI: > 100 µM

## Nc1c(-c2ccc(Cl)cc2)[n+]([O-])c2ccccc2[n+]1[O-]
[1]
  TGI: > 100 µM
[2]
  TGI: > 100 µM
[3]
  TGI: > 100 µM
[4]
  TGI: > 100 µM
[5]
  TGI: > 100 µM
[6]
  TGI: > 100 µM
[7]
  TGI: 55.3 µM
[8]
  TGI: > 100 µM
[9]
  TGI: > 100 µM
